Tests used:
Plasma Kallikrein = Plasma Kallikrein (Homo sapiens (Human), UniProt P03952); experiment: Determination of related protease inhibition: Plasma Kallikrein (fluorogenic substrate at Km); format: biochemical; conditions: 25° C., read-out: IC50 (human PKal)
Procedure: Determination of Related Protease Inhibition
In vitro inhibition of related proteases was determined using an ([…] assay based on standard literature methods (see e.g. Shori et al., Biochem. Pharmacol., 1992, 43, 1209; Bouckaert et al., European Journal of Medicinal Chemistry 110 (2016) 181). Human serine protease enzymes Plasma Kallikrein, KLK1, FXa, Plasmin, Thrombin and Trypsin were assayed for enzymatic activity using an appropriate fluorogenic substrate at Km concentration, FXIa at fixed substrate concentration of 100 μM, and various concentrations of the test compound. Protease activity was measured by monitoring the accumulation of liberated fluorescence from the substrate over […]. The linear rate of fluorescence increase per minute was expressed as percentage (%) activity. IC50 values were calculated as the concentration of inhibitor giving 50% inhibition of the uninhibited enzyme activity (100%).

Human Factor XIIa = Human Factor XIIa (Homo sapiens (Human), UniProt P00748); experiment: Determination of FXIIa inhibition (fluorogenic substrate H-DPro-Phe-Arg-AFC, IC50 assay); format: biochemical; conditions: substrate H-DPro-Phe-Arg-AFC at Km, 25° C.; class scale A-G
Sequence of Human Factor XIIa (P00748 373-615): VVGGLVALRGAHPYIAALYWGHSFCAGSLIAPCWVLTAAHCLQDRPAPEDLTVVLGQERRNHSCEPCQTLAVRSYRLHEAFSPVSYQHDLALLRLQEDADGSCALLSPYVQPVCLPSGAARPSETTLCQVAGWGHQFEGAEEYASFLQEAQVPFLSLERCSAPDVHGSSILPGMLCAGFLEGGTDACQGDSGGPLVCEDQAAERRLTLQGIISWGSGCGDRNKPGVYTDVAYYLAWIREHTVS
Outline: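 Human FXIIa incubated at 25° C with fluorogenic substrate H-DPro-Phe-Arg-AFC at its Km concentration and varying compound concentrations. Fluorescence release monitored over 5 min at 25° C; linear rate expressed as % of uninhibited activity to derive IC50.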

Sequence of Plasma Kallikrein (P03952 391-638): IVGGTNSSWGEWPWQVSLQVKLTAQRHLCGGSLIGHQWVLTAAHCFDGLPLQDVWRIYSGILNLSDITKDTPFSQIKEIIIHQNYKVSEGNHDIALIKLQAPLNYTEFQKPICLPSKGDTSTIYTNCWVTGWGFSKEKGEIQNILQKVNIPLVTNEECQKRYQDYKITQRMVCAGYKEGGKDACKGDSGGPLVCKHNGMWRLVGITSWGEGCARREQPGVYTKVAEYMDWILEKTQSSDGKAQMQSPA
Sequence of Plasma Kallikrein (P03952 20-390 partner): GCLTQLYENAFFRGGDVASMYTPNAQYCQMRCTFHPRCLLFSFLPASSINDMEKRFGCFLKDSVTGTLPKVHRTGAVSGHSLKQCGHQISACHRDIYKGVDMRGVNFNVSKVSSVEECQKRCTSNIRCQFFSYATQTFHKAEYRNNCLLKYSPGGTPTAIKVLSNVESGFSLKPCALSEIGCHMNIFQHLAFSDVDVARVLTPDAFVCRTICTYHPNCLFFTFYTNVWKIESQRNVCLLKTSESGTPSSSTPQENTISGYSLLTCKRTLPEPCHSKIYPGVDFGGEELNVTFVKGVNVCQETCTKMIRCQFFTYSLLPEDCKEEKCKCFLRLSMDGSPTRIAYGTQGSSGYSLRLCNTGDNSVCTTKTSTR

IC50 (Plasma Kallikrein)	IC50 (Human Factor XIIa)	SMILES
10 to 40 µM	3 to 10 µM	Cc1cc(NCc2ccc(NCC3CCN(C)CC3)nc2)cc2ccncc12 [Example 1102, 8-methyl-N-((6-(((1-methylpiperidin-4-yl)methyl)amino)pyridin-3-yl)methyl)isoquinolin-6-amine]
> 40 µM	10 to 40 µM	Cc1n[nH]c2c1CCC2Nc1cc(CNc2ccc3c(N)ncc(Cl)c3c2)ccn1 (centres unmarked) [Example 4440, 4-chloro-N6-((2-((3-methyl-1,4,5,6-tetrahydrocyclopenta[c]pyrazol-6-yl)amino)pyridin-4-yl)methyl)isoquinoline-1,6-diamine]
10 to 40 µM	10 to 40 µM	CN1CCC(CNc2ccc(CNc3cc(CO)c4cnccc4c3)cn2)CC1 [Example 1211, (6-(((6-(((1-methylpiperidin-4-yl)methyl)amino)pyridin-3-yl)methyl)amino)isoquinolin-8-yl)methanol]
> 40 µM	0.3 to 1 µM	Nc1ncc(Cl)c2cc(NCc3ccnc(OCC4CCn5c(CO)cnc5C4)c3)ccc12 (centres unmarked) [Example 4448, (7-(((4-(((1-amino-4-chloroisoquinolin-6-yl)amino)methyl)pyridin-2-yl)oxy)methyl)-5,6,7,8-tetrahydroimidazo[1,2-a]pyridin-3-yl)methanol]
> 100 µM	40 to 100 µM	CN1CCC(CNc2ccc(CNc3cc(F)c4cnccc4c3)cn2)CC1 [Example 1207, 8-fluoro-N-((6-(((1-methylpiperidin-4-yl)methyl)amino)pyridin-3-yl)methyl)isoquinolin-6-amine]
> 100 µM	40 to 100 µM	CN1CCC(COc2cc(CNc3cnc4[nH]cc(C#N)c4c3)ccn2)CC1 [Example 4460]
> 40 µM	10 to 40 µM	CN1CCC(CNc2ccc(CNc3ccncc3)cn2)CC1 [Example 1258, N-((1-methylpiperidin-4-yl)methyl)-5-((pyridin-4-ylamino)methyl)pyridin-2-amine]
> 40 µM	10 to 40 µM	Nc1ncc(Cl)c2cc(NCc3cccc(CC(=O)N4CCn5ccnc5C4)c3)ccc12 [Example 5442, 2-(3-(((1-amino-4-chloroisoquinolin-6-yl)amino)methyl)phenyl)-1-(5,6-dihydroimidazo[1,2-a]pyrazin-7(8H)-yl)ethan-1-one]
3 to 10 µM	3 to 10 µM	CN1CCC(CNc2ccc(CNc3cc(F)c4c(N)nccc4c3)cn2)CC1 [Example 1245, 8-fluoro-N6-((6-(((1-methylpiperidin-4-yl)methyl)amino)pyridin-3-yl)methyl)isoquinoline-1,6-diamine]
3 to 10 µM	0.1 to 0.3 µM	Nc1ncc(Cl)c2cc(NCc3ccc(NCC4CCn5ccnc5C4)nc3)ccc12 (centres unmarked) [Example 1044, 4-Chloro-N6-[[6-(5,6,7,8-tetrahydroimidazo[1,2-a]pyridin-7-ylmethylamino)-3-pyridyl]methyl]isoquinoline-1,6-diamine]
> 40 µM	10 to 40 µM	Nc1ncc(Cl)c2cc(NCc3ccc(N4CCC(CC(F)F)C4)nc3)ccc12 (centres unmarked) [Example 1266, 4-chloro-N6-((6-(3-(2,2-difluoroethyl)pyrrolidin-1-yl)pyridin-3-yl)methyl)isoquinoline-1,6-diamine]
> 40 µM	10 to 40 µM	CNc1cc(NCc2ccc(N3CCn4c(nnc4C(F)F)C3)nc2)ccn1 [Example 1281, N4-((6-(3-(difluoromethyl)-5,6-dihydro-[1,2,4]triazolo[4,3-a]pyrazin-7(8H)-yl)pyridin-3-yl)methyl)-N2-methylpyridine-2,4-diamine]
3 to 10 µM	0.1 to 0.3 µM	Cc1cnc2n1CCC(COc1cc(CNc3cccc4c(N)nccc34)ccn1)C2 (single isomer, unassigned) [Example 4444, (S*)-N5-((2-((3-methyl-5,6,7,8-tetrahydroimidazo[1,2-a]pyridin-7-yl)methoxy)pyridin-4-yl)methyl)isoquinoline-1,5-diamine]
> 40 µM	40 to 100 µM	CN1CCC(CNc2ccc(CNc3ccc4cncc(N5CCCCC5)c4c3)cn2)CC1 [Example 1198, N-((6-(((1-methylpiperidin-4-yl)methyl)amino)pyridin-3-yl)methyl)-4-(piperidin-1-yl)isoquinolin-6-amine]
10 to 40 µM	3 to 10 µM	CN1CCC(OCc2ccc(COc3ccc4c(N)nccc4c3)cc2)CC1 [Example 1011, 6-((4-(((1-Methylpiperidin-4-yl)oxy)methyl)benzyl)oxy)isoquinolin-1-amine]
> 40 µM	10 to 40 µM	CN1CCC(Oc2ccc(CNc3cnc4[nH]cc(Cl)c4c3)cc2)CC1 [Example 1004, 3-Chloro-N-(4-((1-methylpiperidin-4-yl)oxy)benzyl)-1H-pyrrolo[2,3-b]pyridin-5-amine]
> 40 µM	0.1 to 0.3 µM	Nc1ncc(Cl)c2cc(NCc3ccnc(NCC4CCn5ccnc5C4)c3)ccc12 (centres unmarked) [Example 4303, 4-chloro-6-N-{[2-({5H,6H,7H,8H-imidazo[1,2-a]pyridin-7-ylmethyl}amino)pyridin-4-yl]methyl}isoquinoline-1,6-diamine]
10 to 40 µM	0.3 to 1 µM	Cc1cc2c(NCc3ccc(NCC4CCN(C)CC4)nc3)cncc2[nH]1 [Example 1232, 2-Methyl-N-((6-(((1-methylpiperidin-4-yl)methyl)amino)pyridin-3-yl)methyl)-1H-pyrrolo[2,3-c]pyridin-4-amine]
> 40 µM	3 to 10 µM	Nc1nccc2c(NCc3ccc(N4CCn5nccc5C4CO)nc3)cccc12 (centres unmarked) [Example 1268, (5-(5-(((1-aminoisoquinolin-5-yl)amino)methyl)pyridin-2-yl)-4,5,6,7-tetrahydropyrazolo[1,5-a]pyrazin-4-yl)methanol]
> 40 µM	3 to 10 µM	Nc1ncc(Cl)c2cc(NCc3ccc(N4CCn5nccc5C4CO)nc3)ccc12 (centres unmarked) [Example 1273, (5-(5-(((1-amino-4-chloroisoquinolin-6-yl)amino)methyl)pyridin-2-yl)-4,5,6,7-tetrahydropyrazolo[1,5-a]pyrazin-4-yl)methanol]
> 100 µM	40 to 100 µM	CN1CCC(CNc2ccc(CNc3c(F)cnc4[nH]ccc34)cn2)CC1 [Example 1206, 5-fluoro-N-((6-(((1-methylpiperidin-4-yl)methyl)amino)pyridin-3-yl)methyl)-1H-pyrrolo[2,3-b]pyridin-4-amine]
> 40 µM	3 to 10 µM	Nc1nccc2c(NCc3ccc(N4CCn5ccnc5C4CO)nc3)cccc12 (centres unmarked) [Example 1140, (7-(5-(((1-aminoisoquinolin-5-yl)amino)methyl)pyridin-2-yl)-5,6,7,8-tetrahydroimidazo[1,2-a]pyrazin-8-yl)methanol]
10 to 40 µM	1 to 3 µM	Nc1nccc2c(NCc3ccnc(OC4CCn5ccnc5C4)c3)cccc12 (centres unmarked) [Example 4306, 5-N-[(2-{5H,6H,7H,8H-imidazo[1,2-a]pyridin-7-yloxy}pyridin-4-yl)methyl]isoquinoline-1,5-diamine]
10 to 40 µM	0.3 to 1 µM	Cc1cn2c(n1)CC(COc1cc(CNc3ccc4c(N)ncc(Cl)c4c3)ccn1)CC2 (single isomer, unassigned) [Example 4442, (R*)-4-chloro-N6-((2-((2-methyl-5,6,7,8-tetrahydroimidazo[1,2-a]pyridin-7-yl)methoxy)pyridin-4-yl)methyl)isoquinoline-1,6-diamine]
> 4 µM	0.1 to 0.3 µM	Cc1cn2c(n1)CC(COc1cc(CNc3ccc4c(N)ncc(Cl)c4c3)ccn1)CC2 (centres unmarked) [Example 4309, 4-chloro-6-N-{[2-({2-methyl-5H,6H,7H,8H-imidazo[1,2-a]pyridin-7-yl}methoxy)pyridin-4-yl]methyl}isoquinoline-1,6-diamine]
> 40 µM	10 to 40 µM	Nc1nccc2c(NCc3ccc(N4CCn5ncc(CO)c5C4)nc3)cccc12 [Example 1269, (5-(5-(((1-aminoisoquinolin-5-yl)amino)methyl)pyridin-2-yl)-4,5,6,7-tetrahydropyrazolo[1,5-a]pyrazin-3-yl)methanol]
> 4 µM	0.1 to 0.3 µM	Nc1nccc2c(NCc3cnc(OCC4CCn5ccnc5C4)nc3)cccc12 (centres unmarked) [Example 1042, 5-N-[(2-{5H,6H,7H,8H-imidazo[1,2-a]pyridin-7-ylmethoxy}pyrimidin-5-yl)methyl]isoquinoline-1,5-diamine]
> 40 µM	1 to 3 µM	Nc1nccc2c(NCc3ccc(N4Cc5nccn5CC4CO)nc3)cccc12 (centres unmarked) [Example 1137, (7-(5-(((1-aminoisoquinolin-5-yl)amino)methyl)pyridin-2-yl)-5,6,7,8-tetrahydroimidazo[1,2-a]pyrazin-6-yl)methanol]
> 40 µM		CN1CCC(CNc2ccc(CNc3cc(C#N)nc4[nH]ccc34)cn2)CC1 [Example 1261, 4-(((6-(((1-methylpiperidin-4-yl)methyl)amino)pyridin-3-yl)methyl)amino)-1H-pyrrolo[2,3-b]pyridine-6-carbonitrile]
> 100 µM		Cc1cc(NCc2ccc(NCC3CCN(C)CC3)nc2)c2cc[nH]c2c1 [Example 1215, 6-methyl-N-((6-(((1-methylpiperidin-4-yl)methyl)amino)pyridin-3-yl)methyl)-1H-indol-4-amine]

SMILES	IC50 (Plasma Kallikrein)	IC50 (Human Factor XIIa)
CC(=O)c1cncc(NCc2ccnc(OCC3CCN(C)CC3)c2)c1 [Example 4455]	> 100 µM	

Reference: US20240059691A1 (KALVISTA PHARMACEUTICALS LIMITED, priority 2020, published 2024)
